Test results: publication PMC6030096, “Synergy of Physico-chemical and Biological Experiments for Developing a Cyclooxygenase-2 Inhibitor” (Scientific Reports, 2018)
Where two headings read alike, the source gives them in different places.

Tests used:
Format in all cases: biochemical
[1] = target: T1, 5-LOX (Soybean lipoxygenase) (Glycine max, UniProt P08170); experiment: Lipoxygenase inhibitory activity assay
T1 construct: purchased Cayman Chemical Co. 760700
T1 sequence (P08170 1-839): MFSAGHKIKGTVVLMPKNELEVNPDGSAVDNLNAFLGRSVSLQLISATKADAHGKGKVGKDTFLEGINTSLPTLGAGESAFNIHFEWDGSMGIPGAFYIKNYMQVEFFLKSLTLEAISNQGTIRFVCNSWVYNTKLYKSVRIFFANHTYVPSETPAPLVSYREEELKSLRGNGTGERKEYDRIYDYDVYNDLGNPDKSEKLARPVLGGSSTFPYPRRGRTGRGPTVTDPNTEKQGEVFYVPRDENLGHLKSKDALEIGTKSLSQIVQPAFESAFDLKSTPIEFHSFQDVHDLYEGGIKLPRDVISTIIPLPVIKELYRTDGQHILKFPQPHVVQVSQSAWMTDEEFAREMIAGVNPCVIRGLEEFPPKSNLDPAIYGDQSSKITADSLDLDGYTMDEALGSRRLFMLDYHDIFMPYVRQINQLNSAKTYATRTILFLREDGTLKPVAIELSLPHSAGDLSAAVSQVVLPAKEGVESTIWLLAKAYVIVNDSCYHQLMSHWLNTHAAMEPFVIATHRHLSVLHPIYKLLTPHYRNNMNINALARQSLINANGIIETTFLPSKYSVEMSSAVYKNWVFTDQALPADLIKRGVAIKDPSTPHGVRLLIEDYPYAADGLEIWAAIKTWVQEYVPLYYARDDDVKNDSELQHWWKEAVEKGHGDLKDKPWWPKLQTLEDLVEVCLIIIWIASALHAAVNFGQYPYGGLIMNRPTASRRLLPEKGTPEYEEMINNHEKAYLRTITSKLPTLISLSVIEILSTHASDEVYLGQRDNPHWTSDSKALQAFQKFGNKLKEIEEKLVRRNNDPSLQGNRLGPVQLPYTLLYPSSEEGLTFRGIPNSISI
Experimental: 10 µL of the compound of each concentration was mixed with 90 µL 5-LOX (Soybean lipoxygenase in assay buffer) in the specified wells of the 96-well plate. Two wells containing assay buffer and AA acted as blanks whereas four wells, each carrying enzyme and AA, were positive controls. 10 µL AA was added to each test well and the plate was shaken for 5 min. Chromogen (100 µL) was added to each well and the plate was again shaken for 5 min. The absorbance of each well at 490 nm was recorded on microplate scanning spectrophotometer. As per the protocol given with the assay kit, the 5-LOX inhibitory activity for each compound at each concentration was determined using the mean of the two values (duplicate experiments) with deviation <5%.

COX-1 = target: T2, COX-1 (Ovis aries, UniProt P05979); experiment: COX-1 enzyme immunoassay (Cayman inhibitor screening kit)
T2 construct: purchased Cayman Chemical Co. 560131
T2 sequence (P05979 25-600): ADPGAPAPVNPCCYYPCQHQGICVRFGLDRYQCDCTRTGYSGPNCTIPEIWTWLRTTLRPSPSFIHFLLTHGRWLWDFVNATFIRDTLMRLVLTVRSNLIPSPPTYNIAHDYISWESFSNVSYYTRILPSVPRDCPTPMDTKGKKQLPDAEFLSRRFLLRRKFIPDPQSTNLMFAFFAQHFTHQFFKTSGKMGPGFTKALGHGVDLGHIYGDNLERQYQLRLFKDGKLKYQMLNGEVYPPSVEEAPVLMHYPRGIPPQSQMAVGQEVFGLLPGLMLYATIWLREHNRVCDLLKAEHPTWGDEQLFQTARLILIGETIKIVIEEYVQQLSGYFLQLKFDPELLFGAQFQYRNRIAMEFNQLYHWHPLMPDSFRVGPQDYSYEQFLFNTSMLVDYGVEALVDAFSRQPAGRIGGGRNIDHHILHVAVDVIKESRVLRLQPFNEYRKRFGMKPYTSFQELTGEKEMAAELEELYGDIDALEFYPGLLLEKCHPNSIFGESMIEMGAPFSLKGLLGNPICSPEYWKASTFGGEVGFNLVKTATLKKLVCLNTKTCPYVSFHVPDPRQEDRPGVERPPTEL
Experimental: (§1) Principally, the catalytic activity of COX-1/2 is slowed down in the presence of its inhibitor and quantitatively, it is inversely proportional to the amount of prostaglandin produced in the presence of inhibitor.
(§2) The enzyme inhibition screening assay kits for COX-1/2 and 5-LOX with item no. […] The 100% initial activity tubes for the two enzymes contained 10 µL heme and 10 µL of the enzyme in 160 µL reaction buffer. Then 10 µL inhibitor (compound of above mentioned concentrations) was added to the inhibitor tubes for the two enzymes and 10 µL of vehicle (DMSO) was added to 100% initial activity and background tubes. All the tubes were incubated for 10 min at 37 °C and the reaction was started by adding 10 µL arachidonic acid to all the reaction tubes. After incubation of the reaction vials for 2 min at 37 °C, the enzyme catalysis was stopped by adding 30 µL saturated stannous chloride solution to each test tube and solutions were kept at 0–4 °C. For EIA (enzyme immunoassay) procedure: the EIA buffers and assay specific reagents were prepared as written in the manual. In the COX dilutions, two test tubes labelled as BC1 and BC2 were taken to prepare background samples. Each tube contained 990 µL of EIA buffer and 10 µL of background COX-1 for BC1 and 10 µL of background COX-2 for BC2. The samples for 100% initial activity were diluted in three vials labelled IA1, IA2 and IA3 for each enzyme. IA1 contained 990 µL EIA buffer and 10 µL enzyme, IA2 has 950 µL buffer and 50 µL solution of IA1 (1:2000 dilution of original sample) and IA3 carried 500 µL of buffer and 500 µL of IA2 solution (1:4000 dilution of original sample). Each solution was thoroughly mixed. Solutions of IA2 and IA3 were used for the assaying. […] C2 contained 950 µL buffer and 50 µL solution of C1 (1:2000 dilution of original sample) and vial C3 was charged with 500 µL buffer and 500 µL solution from C2 (1: 4000 dilution of original sample). Only C2 and C3 were run in the assay. After all the reaction dilutions, these were then subjected to 96 wells plate. The wells were divided as: 2 blank wells, 2 NSB wells (non-specific binding), 3 B0 wells (maximum binding), one TA well (total activity), 16 wells for standards (S1–S8 in repeat), 2 BC1 and 2 BC2 wells. Compounds (inhibitors) were put in all the other wells. The sequence for the addition of reagents onto the plate was as per the protocol of the assay kit. […] For developing the plate; it was emptied and washed with wash buffer 5 times followed by the addition of 200 µL Ellman’s reagent to each well. 5 µL tracer was added to the TA well. Then the plate was covered and left for 60 mins for development in dark. After the respective time period the cover was removed and the plate was read at 420 nm. %B/Bo (i.e. % sample or maximum bound) value for standards S1-S8 and each sample was determined from the absorbance values obtained according to the calculation given in the protocol. The amount of prostaglandins formed during the enzymatic reaction was calculated from the values of %B/Bo for all the compounds at all concentrations with the help of the standard curve (plotted between %B/Bo of standards and raw data given in the protocol). Then the prostaglandin formed at each concentration of all the compounds and percentage inhibition values were calculated. The graph between percent inhibition of the enzyme and corresponding concentration of the compound provided IC50 values for the compounds.

COX-2 = target: T3, COX-2 (Homo sapiens, UniProt P35354); experiment: COX-2 enzyme immunoassay (Cayman inhibitor screening kit); parameters: purchased Cayman Chemical Co. 560131; conditions: for Selectivity index: SI = IC50 (COX-1)/ IC50 (COX-2); for IC50: enzyme immunoassay, average of three experiments
T3 sequence (P35354 18-604): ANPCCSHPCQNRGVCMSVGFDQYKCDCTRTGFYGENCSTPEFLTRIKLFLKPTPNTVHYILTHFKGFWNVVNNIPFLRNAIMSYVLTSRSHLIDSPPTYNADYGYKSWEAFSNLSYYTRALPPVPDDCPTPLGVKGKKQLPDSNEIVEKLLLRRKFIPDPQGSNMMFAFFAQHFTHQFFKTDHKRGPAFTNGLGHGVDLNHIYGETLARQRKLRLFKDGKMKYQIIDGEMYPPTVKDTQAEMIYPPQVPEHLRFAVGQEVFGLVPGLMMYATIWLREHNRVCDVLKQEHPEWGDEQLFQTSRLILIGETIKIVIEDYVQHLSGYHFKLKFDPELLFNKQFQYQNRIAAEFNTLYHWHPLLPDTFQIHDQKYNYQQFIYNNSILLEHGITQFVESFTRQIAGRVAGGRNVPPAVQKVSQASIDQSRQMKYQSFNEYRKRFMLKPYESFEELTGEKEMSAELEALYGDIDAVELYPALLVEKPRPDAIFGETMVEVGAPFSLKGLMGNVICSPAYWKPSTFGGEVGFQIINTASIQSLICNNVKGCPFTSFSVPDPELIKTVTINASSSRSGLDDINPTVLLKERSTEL
Experimental: as §1, §2

[2] = enzyme immunoassay, average of three experiments, read-out: IC50 COX-1
[3] = soybean lipoxygenase, duplicate, read-out: IC50 5-LOX

| Structure (SMILES) | IC50 [1] | IC50 (COX-1) | Selectivity index (COX-2) | IC50 (COX-2) | IC50 (COX-1; [2]) | IC50 [1, 3] |
| --- | --- | --- | --- | --- | --- | --- |
| O=C1NC(=O)C(=Cc2cn(C[C@@H](O)Cn3c4ccccc4c(=O)c4ccccc43)c3ccccc23)C(=O)N1 [(R)-3a] | 1000 ± 100 nM |  |  |  |  |  |
| CN1C(=O)C(=Cc2cn(C[C@@H](O)Cn3c4ccccc4c(=O)c4ccccc43)c3ccccc23)C(=O)N(C)C1=O [(R)-3b] | 2000 ± 180 nM | 1000 ± 200 nM | 10 | 100 ± 70 nM |  |  |
| O=C1Nc2ccccc2C1=Cc1cn(C[C@@H](O)Cn2c3ccccc3c(=O)c3ccccc32)c2ccccc12 [(R)-3c] |  |  | 0.1 | 80000 ± 7000 nM | 8000 ± 380 nM | 600 ± 42 nM |
| O=C1C(=Cc2cn(C[C@@H](O)Cn3c4ccccc4c(=O)c4ccccc43)c3ccccc23)c2ccccc2N1c1c(Cl)cccc1Cl [(R)-3d] |  |  |  |  | > 10000 nM | 100 ± 60 nM |
| CC1=NN(c2cccc(Cl)c2)C(=O)C1=Cc1cn(C[C@@H](O)Cn2c3ccccc3c(=O)c3ccccc32)c2ccccc12 [(R)-3e] |  |  |  |  |  | 300 ± 130 nM |
| CN1C(=O)C(=Cc2cn(C[C@H](O)Cn3c4ccccc4c(=O)c4ccccc43)c3ccccc23)C(=O)N(C)C1=O [(S)-3b] | 90 ± 12 nM | 700 ± 50 nM |  | 300 ± 180 nM |  |  |
| O=C1C(=Cc2cn(C[C@H](O)Cn3c4ccccc4c(=O)c4ccccc43)c3ccccc23)c2ccccc2N1c1c(Cl)cccc1Cl [(S)-3d] |  |  | 10 | 6000 ± 500 nM | 60000 ± 4500 nM | 600 ± 39 nM |
| CC1=NN(c2cccc(Cl)c2)C(=O)C1=Cc1cn(C[C@H](O)Cn2c3ccccc3c(=O)c3ccccc32)c2ccccc12 [(S)-3e] |  |  |  |  |  | 700 ± 38 nM |
| O=C1NC(=O)C(=Cc2cn(CCCCn3c4ccccc4c(=O)c4ccccc43)c3ccccc23)C(=O)N1 [Compound 4b] | 70 ± 22 nM | > 10000 nM |  | 8000 ± 420 nM |  |  |
| O=C1Nc2ccccc2C1=Cc1cn(CCCCn2c3ccccc3c(=O)c3ccccc32)c2ccccc12 [Compound 4d] |  |  | 1.33 | 3000 ± 220 nM | 4000 ± 180 nM | 200 ± 90 nM |
| CC1=NN(c2cccc(Cl)c2)C(=O)C1=Cc1cn(CCCn2c3ccccc3c(=O)c3ccccc32)c2ccccc12 [Compound 4e] |  |  | >1.11 | 9000 ± 550 nM | > 10000 nM | 400 ± 15 nM |
| CC1=NN(c2cccc(Cl)c2)C(=O)C1=Cc1cn(CCCCn2c3ccccc3c(=O)c3ccccc32)c2ccccc12 [Compound 4f] |  |  |  | 40000 ± 3800 nM |  | 100 ± 70 nM |
